Counter-ions that a name gives are not always drawn. Like-named read-outs stand apart in the source and are kept apart here.
Tests used:
PGF2alpha receptor [1] = target: T1, PGF2alpha receptor (Rattus norvegicus, UniProt P43118); experiment: PGF2alpha antagonist effect in vitro in isolated rat uterus; conditions: compound 2 × 10^-6 M, PGF2alpha 1.4 × 10^-7 M, read-out: Percentual inhibition at concentrations of 2 × 10^-6 M against 1.4 × 10^-7 M PGF2alpha
T1 construct: in the isolated rat uterus; from tissue; host or cells: isolated rat uterus
Text: (§1) In vitro, in the isolated rat uterus (Table 1), and in vivo in rabbits under urethane anesthesis (Table 2) they antagonize the uterine contraction inducing activity of PGF2alpha. The competitive antagonist effect of the compounds is selective and protracted, while it fails to influence the uterine contraction inducing effect of other endogeneous compounds, i.e. oxytocin. This would enable their use as spasmolytic agents of new mechanism of action in the field of obstetrics and gynecology for the treatment of dysmenorrhea and anovulation, and the prevention of imminent and habitual abortus and miscarriage.
PGF2alpha antagonist effect of the compounds of general
formula (I) in vitro in isolated rat uterus
Method: 1. J. H. Gaddum and K. A. Hammed:
2. O. Arunlakshana and H. O Schild:
Compound Percentual inhibition at concentrations

[2] = Acute toxicity in CFLP mice (Probite analysis according to Litchfield-Wilcoxon); conditions: mouse, in vivo
Text: Acute toxicity of pyrazole derivatives of
general formula (I) in CFLP mice
Method: Probite analysis according to Litchfield-
Wilcoxon [J. Pharm. Exp. Ther. 96, 99 (1949)]

uterine musculature = conditions: known compounds with ergoline skeleton; cited from earlier work
PGF2alpha receptor [3] = experiment: In vivo PGF2alpha antagonist effect in urethane anesthesized rabbits; conditions: PGF2alpha 6.25 μg/kg iv; for Duration of the effect: rabbits; for Inhibition: urethane anesthesized rabbits
Text: as §1
In vivo PGF2alpha antagonist effect of pyrazole deriva-
tives of general formula (I) in urethane (1.2 g/kg iv)
1. D. F. Hawkins: Agents Acting on the Uterus.
In: Evaluation of Drug Activities: Pharma-
cometrics. Edited by R. Lawrence and A. L.
Bacharach. Academic Press, London, p. 680 (1964)
2. A. R. Cushny: J. Physiol. 35, 1 (1906)
PGF2alpha standard dose: 6.25 μg/kg iv

T1 sequence (P43118 whole entry): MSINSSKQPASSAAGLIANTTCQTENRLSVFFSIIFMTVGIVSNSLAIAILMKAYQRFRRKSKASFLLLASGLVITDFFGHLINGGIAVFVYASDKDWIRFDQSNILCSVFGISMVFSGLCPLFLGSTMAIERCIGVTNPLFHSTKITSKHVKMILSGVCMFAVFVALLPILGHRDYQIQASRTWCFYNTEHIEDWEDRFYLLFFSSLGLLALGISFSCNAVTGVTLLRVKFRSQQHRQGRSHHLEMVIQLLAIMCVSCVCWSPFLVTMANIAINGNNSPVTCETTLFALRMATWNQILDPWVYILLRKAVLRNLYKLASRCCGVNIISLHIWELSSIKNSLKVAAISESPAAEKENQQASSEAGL

| Compound | inhibition at 2 µM (PGF2alpha receptor [1]) | LD50 ([2]; ip, read-out: LD50 ip) | LD50 ([2]; po, read-out: LD50 po) | further results |
| --- | --- | --- | --- | --- |
| C=CCc1c(C)nn(C[C@@H]2C=C3c4cccc5[nH]cc(c45)C[C@H]3N(C)C2)c1C [Example 14, 8-beta-(3,5-Dimethyl-4-allyl-pyrazol-1-yl-methylene)-6-methyl-ergol-9-ene] | 77% | > 100 mg/kg | > 100 mg/kg | – |
| C[C@@H](CO)NC(=O)[C@@H]1C=C2c3cccc4[nH]cc(c34)C[C@H]2N(C)C1 [ergometrin] | – | – | – | effect on the uterine musculature (uterine musculature): inducing uterine contraction |
| Cc1nn(C[C@@H]2C=C3c4cccc5[nH]cc(c45)C[C@H]3N(C)C2)c2c1C(O)CC2 (stereo partly drawn) [Example 7, 8-beta-[3(6)-Methyl-4(5)-hydroxy-cyclopentano/4,5(3,4)/pyrazol-1-yl-methylene]-6-methyl-ergol-9-ene] | – | > 100 mg/kg | > 100 mg/kg | – |
| CN1C[C@H](Cn2nc(-c3cccnc3)c3c2CCC3)C=C2c3cccc4[nH]cc(c34)C[C@H]21 [Example 5, 8-beta-[3(5)-(3-Pyridyl)-cyclopentano/4,5(3,4)/pyrazol-1-yl-methylene]-6-methyl-ergol-9-ene] | 46% | > 100 mg/kg | > 100 mg/kg | – |
| Cc1nn(C[C@@H]2C=C3c4cccc5[nH]cc(c45)C[C@H]3N(C)C2)c2c1C(=NO)CC(C)(C)C2 [Example 11, 8-beta-[3(7),6(4)-Trimethyl-4(6)-hydroxy-imino-cyclohexano/4,5(3,4)/pyrazol-1-yl-methylene]-6-methyl-ergol-9-ene] | 80% | > 100 mg/kg | > 100 mg/kg | Duration of the effect (PGF2alpha receptor [3]; 20.0 mg/kg intraduodenal): > 120 min; Inhibition (PGF2alpha receptor [3]; 20.0 mg/kg intraduodenal): 72% |
| CC(C)C[C@H]1C(=O)N2CCC[C@H]2[C@]2(O)O[C@](NC(=O)[C@@H]3C=C4c5cccc6[nH]c(Br)c(c56)C[C@H]4N(C)C3)(C(C)C)C(=O)N12 [bromocryptine] | – | – | – | effect on the uterine musculature (uterine musculature): uterine relaxants |
| Cc1nn(C[C@@H]2C=C3c4cccc5[nH]cc(c45)C[C@H]3N(C)C2)c2c1C(=O)CC2 [Example 6, 8-beta-[3(6)-Methyl-4(5)-oxo-cyclopentano/4,5(3,4)/pyrazol-1-yl-methylene]-6-methyl-ergol-9-ene] | – | > 200 mg/kg | 1000 mg/kg | – |
| CN1C[C@H](C(=O)N[C@]2(C)O[C@@]3(O)[C@@H]4CCCN4C(=O)[C@H](Cc4ccccc4)N3C2=O)C[C@@H]2c3cccc4[nH]cc(c34)C[C@H]21 [dihydroergotamine] | – | – | – | effect on the uterine musculature (uterine musculature): uterine relaxants |
| Cc1cc(-c2ccccn2)nn1C[C@@H]1C[C@@H]2c3cccc4[nH]cc(c34)C[C@H]2N(C)C1 [Example 17, 8-beta-[3(5)-/2-Pyridyl/-5(3)-methyl-pyrazol-1-yl-methylene]-6-methyl-ergoline] | 44% | > 100 mg/kg | > 100 mg/kg | Duration of the effect (PGF2alpha receptor [3]; 10.0 mg/kg intraduodenal): 120 min; Inhibition (PGF2alpha receptor [3]; 10.0 mg/kg intraduodenal): 55%; Duration of the effect (PGF2alpha receptor [3]; 20.0 mg/kg intraduodenal): > 150 min; Inhibition (PGF2alpha receptor [3]; 20.0 mg/kg intraduodenal): 77% |
| Cc1nn(C[C@@H]2C=C3c4cccc5[nH]cc(c45)C[C@H]3N(C)C2)c2c1CCC2 [Hydrogen-fumarate of 1, 8-beta-[3(5)-methyl-cyclopentano/4,5(3,4)/pyrazol-1-yl-methylene]-6-methyl-ergol-9-ene hydrogen fumarate] | – | – | – | Duration of the effect (PGF2alpha receptor [3]; 3.0 mg/kg intraduodenal): > 180 min; Inhibition (PGF2alpha receptor [3]; 3.0 mg/kg intraduodenal): 63% |
| Cc1nn(C[C@@H]2C=C3c4cccc5c4c(cn5C)C[C@H]3N(C)C2)c2c1CCC2 [Example 2, 8-beta-[3(5)-Methyl-cyclopentane/4,5(3,4)/pyrazol-1-yl-methylene]-1,6-dimethyl-ergol-9-ene hydrogen maleinate] | 58% | > 100 mg/kg | > 100 mg/kg | – |
| CC[C@@H](CO)NC(=O)[C@@H]1C=C2c3cccc4[nH]cc(c34)C[C@H]2N(C)C1 [methylergometrin] | – | – | – | effect on the uterine musculature (uterine musculature): inducing uterine contraction |
| Cc1nn(C[C@@H]2C=C3c4cccc5[nH]cc(c45)C[C@H]3N(C)C2)c2c1C(=NO)CC2 [Example 8, 8-beta-[3(6)-Methyl-4(5)-hydroxy-imino-cyclopentano/4,5(3,4)/pyrazol-1-yl-methylene]-6-methyl-ergol-9-ene] | – | > 100 mg/kg | > 100 mg/kg | – |
| Cc1cc(-c2ccccn2)nn1C[C@@H]1C=C2c3cccc4[nH]cc(c34)C[C@H]2N(C)C1 [Example 16, 8-beta-[3(5)-/2-Pyridyl/-5(3)-methyl-pyrazol-1-yl-methylene]-6-methyl-ergol-9-ene] | 18% | > 100 mg/kg | > 100 mg/kg | – |
| Cc1nn(C[C@@H]2C=C3c4cccc5[nH]cc(c45)C[C@H]3N(C)C2)c2c1CCCC2 [Example 9, 8-beta-[3(5)-Methyl-cyclohexano/4,5(3,4)/pyrazol-1-yl-methylene]-6-methyl-ergol-9-ene] | 40% | > 100 mg/kg | > 100 mg/kg | Duration of the effect (PGF2alpha receptor [3]; 3.0 mg/kg intraduodenal): > 180 min; Inhibition (PGF2alpha receptor [3]; 3.0 mg/kg intraduodenal): 58%; Duration of the effect (PGF2alpha receptor [3]; 10.0 mg/kg intraduodenal): > 180 min; Inhibition (PGF2alpha receptor [3]; 10.0 mg/kg intraduodenal): 68% |
| CC(=O)c1c(C)nn(C[C@@H]2C=C3c4cccc5[nH]cc(c45)C[C@H]3N(C)C2)c1C [Example 18, 8-beta-[3,5-Dimethyl-4-(1-oxo-ethyl)-pyrazol-1-yl-methylene]-6-methyl-ergol-9-ene] | – | > 100 mg/kg | > 100 mg/kg | – |
| Cc1nn(C[C@@H]2C=C3c4cccc5[nH]cc(c45)C[C@H]3N(C)C2)c2c1C(=O)CC(C)(C)C2 [Example 10] | 66% | > 100 mg/kg | > 100 mg/kg | Duration of the effect (PGF2alpha receptor [3]; 20.0 mg/kg intraduodenal): 90 min; Inhibition (PGF2alpha receptor [3]; 20.0 mg/kg intraduodenal): 42% |
| CCOC(=O)c1nn(C[C@@H]2C=C3c4cccc5[nH]cc(c45)C[C@H]3N(C)C2)c(O)c1C [Example 15, 8-beta-(3-Carbethoxy-4-methyl-5-hydroxy-pyrazol-1-yl-methylene)-6-methyl-ergol-9-ene] | 40% | > 100 mg/kg | > 100 mg/kg | – |
| CN1C[C@H](C(=O)N[C@]2(C)O[C@@]3(O)[C@@H]4CCCN4C(=O)[C@H](Cc4ccccc4)N3C2=O)C=C2c3cccc4[nH]cc(c34)C[C@H]21 [ergotamine] | – | – | – | effect on the uterine musculature (uterine musculature): inducing uterine contraction |
| hydergine | – | – | – | effect on the uterine musculature (uterine musculature): uterine relaxants |
| Cc1nn(C[C@@H]2C[C@@H]3c4cccc5[nH]cc(c45)C[C@H]3N(C)C2)c2c1CCC2 [Example 4, 8-beta-[3(5)-Methyl-cyclopentano/4,5(3,4)/pyrazol-1-yl-methylene]-6-methyl-ergoline] | – | > 100 mg/kg | > 100 mg/kg | – |
| Cc1nn(C[C@@H]2C=C3c4cccc5[nH]cc(c45)C[C@H]3N(C)C2)c2c1CCC2 [Example 1, 8-beta-[3(5)-Methyl-cyclopentano/4,5(3,4)/pyrazol-1-yl-methylene]-6-methyl-ergol-9-ene] | 70% | 3100 mg/kg | 2450 mg/kg | Duration of the effect (PGF2alpha receptor [3]; 0.3 mg/kg intraduodenal): > 180 min; Inhibition (PGF2alpha receptor [3]; 0.3 mg/kg intraduodenal): 38%; Duration of the effect (PGF2alpha receptor [3]; 1.0 mg/kg intraduodenal): > 180 min; Inhibition (PGF2alpha receptor [3]; 1.0 mg/kg intraduodenal): 49% |

Reference: patent US4632928A, “Pyrazole derivatives with an ergoline skeleton, their acid addition salts, and a process for the preparation thereof” (Richter Gedeon Vegyeszeti Gyar R.T., priority 1983, dated 1986)
